According to US9334263B2, “Compositions useful for treating disorders related to kit” (BLUEPRINT MEDICINES CORPORATION, priority 2013, dated 2016):

Columns and labels:
D816V Kit = target: T1, D816V Kit (Homo sapiens, UniProt P10721, D816V); assay: Kit D816V assay at Km (Caliper electrophoretic mobility shift); assay type: biochemical; details: 15 uM ATP, 25 C, 90 minutes
T1 construct: purchased Carna Bioscience 08-156
Method: In order to assess the activity of chemical compounds against the relevant kinase of interest, the Caliper LifeSciences electrophoretic mobility shift technology platform is used. Fluorescently labeled substrate peptide is incubated in the presence of kinase and ATP so that a […] proportion of the peptide is phosphorylated. At the end of the reaction, the mix of phosphorylated (product) and non-phosphorylated (substrate) peptides are passed through the microfluidic system of the Caliper EZ Reader 2, under an applied potential difference. The presence of the phosphate group on the product peptide provides a difference in mass and charge between those of the substrate peptide, resulting in a separation of the substrate and product pools in the sample. As the pools pass a LEDS within the instrument, these pools are detected and resolved as separate peaks. The ratio between these peaks therefore reflects the activity of the chemical matter at that concentration in that well, under those conditions.
The reaction was stopped by the addition of 70 ul of Stop buffer (100 mM HEPES pH 7.5, 0.015% Brij 35, 35 mM EDTA and 0.2% of Coating Reagent 3 (Caliper Lifesciences)). The plate was then read on a Caliper EZReader 2 (protocol settings: −1.9 psi, upstream voltage −700, downstream voltage −3000, post sample sip 35 s).

[1] = target: T2, Kit D816V (HMC1.2 cells, Kit V560G and D816V) (Homo sapiens, UniProt P10721, D816V/V560G); assay: HMC1.2 autophosphorylation assay (AlphaLISA, phospho-Y719 c-Kit); assay type: cell-based; details: Kit autophosphorylation at tyrosine 719, 90 minutes, read-out: Cellular Activity
T2 construct: endogenous in cells; host or cells: HMC1.2 cells
Method: HMC1.2 Autophosphorylation Assay:
10,000 HMC1.2 cells were incubated in 22 ul culture media (phenol-red free IMDM, no serum) in each well of a 384-well plate and serum starved overnight in a tissue culture incubator (5% CO2, 37° C.). A 10-point dose concentration series of compound (25 uM-95.4 pM) were then added to the cells in a volume of 3.1 ul to each well (0.25% DMSO final concentration). After 90 minutes, 6 ul of 5× AlphaLISA Lysis Buffer (Perkin Elmer) supplemented with a protease and phosphatase inhibitor cocktail (Cell Signaling Technologies) was added to each well and shaken at 450 rpm for 15 minutes at 4° C. 10 ul of phospho-Y719 c-Kit and total c-Kit antibodies (15 nM final concentration, Cell Signaling Technologies) and 50 ug/ml AlphaLISA rabbit acceptor beads (Perkin Elmer) were added to each well and shaken at 300 rpm at room temperature for 2 hours. 10 ul of 100 ug/ml streptavidin donor beads (Perkin Elmer) were added to each well, blocked from light with aluminum adhesive and shaken at 300 rpm at room temperature for 2 hours. Fluorescence signal was obtained on Envision (Perkin Elmer) by AlphaScreen 384 well HTS protocol.
This cell line contains Kit mutated at positions V560G and D816V resulting in constitutive activation of the kinase. The following compounds were tested in an assay to measure direct inhibition of Kit D816V kinase activity by assaying Kit autophosphorylation at tyrosine 719 on the Kit protein.

T2 sequence (P10721 26-976 V560G/D816V): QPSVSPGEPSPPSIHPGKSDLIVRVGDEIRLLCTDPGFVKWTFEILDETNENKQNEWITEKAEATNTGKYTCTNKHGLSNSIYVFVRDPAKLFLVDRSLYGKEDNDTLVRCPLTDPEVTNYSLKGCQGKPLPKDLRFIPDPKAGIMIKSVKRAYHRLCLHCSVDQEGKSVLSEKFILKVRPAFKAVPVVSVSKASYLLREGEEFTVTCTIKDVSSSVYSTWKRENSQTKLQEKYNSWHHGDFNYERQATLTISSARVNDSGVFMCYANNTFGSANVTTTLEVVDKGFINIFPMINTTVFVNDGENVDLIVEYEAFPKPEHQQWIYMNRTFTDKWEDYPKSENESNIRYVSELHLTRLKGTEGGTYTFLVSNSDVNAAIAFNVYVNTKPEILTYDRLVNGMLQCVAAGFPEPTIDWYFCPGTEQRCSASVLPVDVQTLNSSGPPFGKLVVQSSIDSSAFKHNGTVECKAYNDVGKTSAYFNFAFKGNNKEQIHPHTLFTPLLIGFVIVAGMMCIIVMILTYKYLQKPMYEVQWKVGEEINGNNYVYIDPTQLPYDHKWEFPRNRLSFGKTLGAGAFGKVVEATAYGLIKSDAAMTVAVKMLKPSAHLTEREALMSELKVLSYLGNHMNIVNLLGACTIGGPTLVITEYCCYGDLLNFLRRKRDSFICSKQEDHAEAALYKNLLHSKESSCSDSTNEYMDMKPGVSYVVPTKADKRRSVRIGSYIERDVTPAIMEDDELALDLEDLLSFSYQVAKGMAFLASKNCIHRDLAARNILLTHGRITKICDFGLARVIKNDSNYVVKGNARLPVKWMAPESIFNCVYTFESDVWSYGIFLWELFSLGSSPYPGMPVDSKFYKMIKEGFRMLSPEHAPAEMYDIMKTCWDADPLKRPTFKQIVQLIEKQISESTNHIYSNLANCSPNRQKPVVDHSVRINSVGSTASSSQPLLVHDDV
T1 sequence (P10721 26-976 D816V): as the sequence (P10721 26-976 V560G/D816V) above, with G535V counted along it

Compound	IC50 (D816V Kit) [nM]	IC50 [1] [nM]
CC(C)(O)[C@@H](O)c1ccc(Nc2ncnc(N3CCN(c4ncc(Cc5ccccc5)cn4)CC3)n2)cc1 [Compound 122]	< 1	10 to 100
c1ccc(Cc2cnc(N3CCN(c4ncnc(Nc5ccc6c(c5)CCCNC6)n4)CC3)nc2)cc1 [Compound 72]	< 1	10 to 100
c1ccc(Cc2cnc(N3CCN(c4ncnc(Nc5ccc6c(c5)CNCC65CC5)n4)CC3)nc2)cc1 [Compound 97]	< 1	10 to 100
Cc1c(Nc2ncnc(N3CCN(c4ncc(Sc5ccc(F)cc5)cn4)CC3)n2)cnn1C[C@H](C)O [Compound 151]	1.01 to 10	10 to 100
OC[C@@H](O)Cn1cc(Nc2ncnc(N3CCN(c4ncc(Cc5ccccc5)cn4)CC3)n2)cn1 [Compound 65]	< 1	10 to 100
c1ccc(Cc2cnc(N3CCN(c4ncnc(Nc5ccc(O[C@H]6CCNC6)cc5)n4)CC3)nc2)cc1 [Compound 108]	< 1	10 to 100
COc1cc(Nc2ncnc(N3CCN(c4ncc(Cc5ccccc5)cn4)CC3)n2)ccn1 [Compound 17]	1.01 to 10	1000 to 10000
Fc1cccc(Cc2cnc(N3CCN(c4ncnc(Nc5ccc6c(c5)CNCC6)n4)CC3)nc2)c1 [Compound 80]	1.01 to 10	10 to 100
Fc1ccc(Cc2cnc(N3CCN(c4ncnc(Nc5ccc6c(c5)CNCC6)n4)CC3)nc2)c(F)c1 [Compound 138]	< 1	10 to 100
C[C@@H](O)Cn1cc(Nc2ncnc(N3CCN(c4ncc(Cc5ccccc5)cn4)CC3)n2)cn1 [Compound 32]	1.01 to 10	10 to 100
C[C@H](O)CNc1ccc(Nc2ncnc(N3CCN(c4ncc(Cc5ccccc5)cn4)CC3)n2)cc1 [Compound 81]	< 1	10 to 100
C[C@H](O)Cn1cc(Nc2ncnc(N3CCN(c4ncc(Cc5ccccc5)cn4)CC3)n2)cn1 [Compound 33]	1.01 to 10	10 to 100
OC[C@H](O)COc1cccc(Nc2ncnc(N3CCN(c4ncc(Cc5ccccc5)cn4)CC3)n2)c1 [Compound 132]	< 1	10 to 100
OC[C@H](O)Cn1cc(Nc2ncnc(N3CCN(c4ncc(Cc5ccccc5)cn4)CC3)n2)cn1 [Compound 66]	< 1	10 to 100
CC(C)(O)Cn1cc(Nc2ncnc(N3CCN(c4ncc(Cc5ccccc5)cn4)CC3)n2)cn1 [Compound 62]	< 1	10 to 100
c1nc(Nc2cnn(C[C@@H]3CNCCO3)c2)nc(N2CCN(c3ncc(CCC4CC4)cn3)CC2)n1 [Compound 67]	10 to 100	
Cc1cc(Nc2ncnc(N3CCN(c4ncc(Cc5ccccc5)cn4)CC3)n2)no1 [Compound 11]	10 to 100	
Clc1ncc(N2CCN(c3ncnc(Nc4ccc5c(c4)CNCC5)n3)CC2)nn1 [Compound 8]	10 to 100	
C(#CC1CC1)c1cnc(N2CCN(c3ncnc(Nc4cnn(C[C@@H]5CNCCO5)c4)n3)CC2)nc1 [Compound 63, (S)-4-(4-(5-(cyclopropylethynyl)pyrimidin-2-yl)piperazin-1-yl)-N-(1-(morpholin-2-ylmethyl)-1H-pyrazol-4-yl)-1,3,5-triazin-2-amine]	> 100	
Nc1nc(N2CCN(c3ncnc(NC4CC4)n3)CC2)ncc1Cc1ccccc1 [Compound 3]	> 100	
CC(O)c1ccc(Nc2ncnc(N3CCN(c4ncc([C@@](C)(N)c5ccc(F)cc5)cn4)CC3)n2)cc1 (stereo partly drawn) [Compound 140]	< 1	
Nc1nc(N2CCN(c3ncnc(Nc4cnn(CC5CN(C=O)CCO5)c4)n3)CC2)ncc1Cl (stereo not drawn) [Compound 90]	10 to 100	
CNc1ncnc(N2CCN(c3ncc(Cc4ccccc4)c(N)n3)CC2)n1 [Compound 1]	> 100	
Cc1c(Nc2ncnc(N3CCN(c4ncc(Br)cn4)CC3)n2)cnn1C[C@@H]1CNCCO1 [Compound 142]	10 to 100	

Results, then the molecule that gave them:

IC50 (D816V Kit) [nM]	IC50 [1] [nM]	Compound
< 1	< 10	Cc1nn(C[C@H](C)O)cc1Nc1ncnc(N2CCN(c3ncc(Sc4ccc(F)cc4)cn3)CC2)n1 [Compound 152]
< 1	10 to 100	CC(C)(c1ccccc1)c1cnc(N2CCN(c3ncnc(Nc4cnn(C[C@@H]5CNCCO5)c4)n3)CC2)nc1 [Compound 244]
1.01 to 10	10 to 100	C[C@H](c1ccccc1)c1cnc(N2CCN(c3ncnc(Nc4ccc(N5CCC[C@@H](O)C5)cc4)n3)CC2)nc1 [Compound 223]
1.01 to 10	100 to 1000	Cc1c(Nc2ncnc(N3CCN(c4ncc(Sc5ccccc5F)cn4)[C@H](C)C3)n2)cnn1C[C@H](O)CO [Compound 264]
1.01 to 10	10 to 100	c1ccc(Sc2cnc(N3CCN(c4ncnc(Nc5cnn(C[C@@H]6CNCCO6)c5)n4)CC3)nc2)cc1 [Compound 199]
< 1	10 to 100	Cc1nn(C[C@H](C)O)cc1Nc1ncnc(N2CCN(c3ncc(Sc4ccccc4F)cn3)CC2)n1 [Compound 153]
1.01 to 10	10 to 100	CN1CCNC[C@@H]1Cn1cc(Nc2ncnc(N3CCN(c4ncc(Cc5ccccc5)cn4)CC3)n2)cn1 [Compound 177]
1.01 to 10	100 to 1000	Fc1ccccc1Sc1cnc(N2CCN(c3ncnc(Nc4ccc(C5CNCCO5)cc4)n3)CC2)nc1 (stereo not drawn) [Compound 251]
< 1	< 10	Fc1ccccc1Cc1cnc(N2CCN(c3ncnc(Nc4cnn(C[C@@H]5CNCCO5)c4)n3)CC2)cn1 [Compound 198]
< 1	10 to 100	CC(C)(O)Cn1cc(Nc2ncnc(N3CCN(c4ncc([C@](C)(O)c5ccc(F)cc5)cn4)CC3)n2)cn1 [Compound 207]
< 1	< 10	O=S1(=O)Cc2ccc(Nc3ncnc(N4CCN(c5ncc(Cc6ccccc6)cn5)CC4)n3)cc2CN1 [Compound 192]
1.01 to 10	10 to 100	Fc1ccc(Sc2ncc(N3CCN(c4ncnc(Nc5cnn(C[C@@H]6CNCCO6)c5)n4)CC3)nn2)cc1 [Compound 258]
< 1	10 to 100	Cc1nn(CC(C)(C)O)cc1Nc1ncnc(N2CCN(c3ncc(Sc4ccccc4F)cn3)CC2)n1 [Compound 209]
< 1	10 to 100	CC(C)(c1ccc(F)cc1)c1cnc(N2CCN(c3ncnc(Nc4cnn(C[C@@H]5CNCCO5)c4)n3)CC2)nc1 [Compound 267]
1.01 to 10	1000 to 10000	COc1cc(N2CCNCC2)ccc1Nc1ncnc(N2CCN(c3ncc(Cc4ccccc4)cn3)CC2)n1 [Compound 230]
< 1	10 to 100	C[C@](N)(c1ccc(F)cc1)c1cnc(N2CCN(c3ncnc(Nc4ccc(N5CCC[C@H](O)C5)cc4)n3)CC2)nc1 [Compound 275]
1.01 to 10	100 to 1000	Fc1ccc(Oc2cnc(N3CCN(c4ncnc(Nc5cnn(C[C@@H]6CNCCO6)c5)n4)CC3)nc2)cc1 [Compound 202]
< 1	10 to 100	O[C@@H](c1ccccc1)c1cnc(N2CCN(c3ncnc(Nc4cnn(CC5CNCCO5)c4)n3)CC2)nc1 (stereo partly drawn) [Compound 189, (S)-(2-(4-(4-(1-(morpholin-2-ylmethyl)-1H-pyrazol-4-ylamino)-1,3,5-triazin-2-yl)piperazin-1-yl)pyrimidin-5-yl)(phenyl)methanol]
< 1	10 to 100	OC[C@@H]1CN(c2ncnc(Nc3cnn(CC4CNCCO4)c3)n2)CCN1c1ncc(Cc2ccccc2)cn1 (stereo partly drawn) [Compound 248]
1.01 to 10		C[C@@](O)(c1ccc(F)cc1)c1cnc(N2CCN(c3ncnc(Nc4cnn(C[C@@H]5CNCCO5)c4)n3)CC2)nc1 (single isomer, unassigned) [Compound 270]
10 to 100		C[C@@H]1CN(c2ncnc(Nc3cnn(C[C@@H]4CNCCO4)c3)n2)CCN1c1ncc(Br)c(N)n1 [Compound 194]
1.01 to 10		FC(F)(c1ccccc1)c1cnc(N2CCN(c3ncnc(Nc4cnn(C[C@@H]5CNCCO5)c4)n3)CC2)nc1 [Compound 254]
10 to 100		OC[C@H]1CN(c2ncnc(Nc3cnn(CC4CNCCO4)c3)n2)CCN1c1ncc(Cc2ccccc2)cn1 (stereo partly drawn) [Compound 247]
